Values joined by “and” are separate entries in the source; they are usually repeats but may differ in a detail not shown here. Identical values can stand only once. Inconclusive results and toxic doses are left out.
System: P388 leukemia ip, CD2F1 mice, survival T/C
Assay: NCI In Vivo Anticancer Drug Screen. Data for tumor model P388 Leukemia (intraperitoneal) in CD2F1 (CDF1) mice
Conditions: endpoint: median survival time, higher = longer survival
In short: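 Mice carrying the transplanted tumor received test compound or vehicle. Survival was recorded in each group, and the value is the treated-group measurement divided by that of the vehicle-treated control group.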

[1] = dose: 50.0 mg/kg/injection, schedule: Q01DX009 (ip), vehicle: saline with Tween-80
[2] = dose: 100.0 mg/kg/injection, schedule: Q01DX009 (ip), vehicle: saline with Tween-80
[3] = dose: 200.0 mg/kg/injection, schedule: Q01DX009 (ip), vehicle: saline with Tween-80
[4] = dose: 60.0 mg/kg/injection, schedule: Q01DX005 (ip), vehicle: saline with Tween-80
[5] = dose: 120.0 mg/kg/injection, schedule: Q01DX005 (ip), vehicle: saline with Tween-80
[6] = dose: 240.0 mg/kg/injection, schedule: Q01DX005 (ip), vehicle: saline with Tween-80
[7] = dose: 60.0 mg/kg/injection, schedule: Q01DX005 (ip), vehicle: saline
[8] = dose: 120.0 mg/kg/injection, schedule: Q01DX005 (ip), vehicle: saline
[9] = dose: 240.0 mg/kg/injection, schedule: Q01DX005 (ip), vehicle: saline
[10] = dose: 50.0 mg/kg/injection, schedule: Q01DX009 (ip), vehicle: Klucel (hydroxypropylcellulose) (HPC)
[11] = dose: 100.0 mg/kg/injection, schedule: Q01DX009 (ip), vehicle: Klucel (hydroxypropylcellulose) (HPC)
[12] = dose: 200.0 mg/kg/injection, schedule: Q01DX009 (ip), vehicle: Klucel (hydroxypropylcellulose) (HPC)
[13] = dose: 25.0 mg/kg/injection, schedule: Q01DX009 (ip), vehicle: other
[14] = dose: 50.0 mg/kg/injection, schedule: Q01DX009 (ip), vehicle: other
[15] = dose: 100.0 mg/kg/injection, schedule: Q01DX009 (ip), vehicle: other
[16] = dose: 50.0 mg/kg/injection, schedule: Q01DX009 (ip), vehicle: saline
[17] = dose: 100.0 mg/kg/injection, schedule: Q01DX009 (ip), vehicle: saline
[18] = dose: 30.0 mg/kg/injection, schedule: Q01DX005 (ip), vehicle: saline with Tween-80
[19] = dose: 100.0 mg/kg/injection, schedule: Q01DX001 (ip), vehicle: saline
[20] = dose: 200.0 mg/kg/injection, schedule: Q01DX001 (ip), vehicle: saline
[21] = dose: 400.0 mg/kg/injection, schedule: Q01DX001 (ip), vehicle: saline
[22] = dose: 25.0 mg/kg/injection, schedule: Q01DX009 (ip), vehicle: saline + alcohol
[23] = dose: 50.0 mg/kg/injection, schedule: Q01DX009 (ip), vehicle: saline + alcohol

With `NC1=NN(O)C2=CC([N+](=O)[O-])C=CC2=N1` (stereo not drawn) the T/C [1] was 101 % of control, the T/C [2] was 110 % of control and the T/C [3] was 97 % of control.
`O=CNc1ccc(C(=O)O)c(O)c1` was tested, and the T/C [4] was 98 % of control, the T/C [5] was 93 % of control and the T/C [6] was 90 % of control.
With `O=C(CBr)Nc1c(Br)cc(F)cc1Br` the T/C [1] was 100 % of control, the T/C [2] was 92 % of control and the T/C [3] was 100 % of control.
In the case of `CCCC(OC(C)=O)C(C)[N+](=O)[O-]` (stereo not drawn), the T/C (dose: 12.5 mg/kg/injection, schedule: Q01DX009 (ip), vehicle: saline with Tween-80) is reported as 91 % of control, the T/C (dose: 25.0 mg/kg/injection, schedule: Q01DX009 (ip), vehicle: saline with Tween-80) is reported as 100 % of control and the T/C [1] is reported as 102 % of control. The T/C [2] was 104 % of control and the T/C [3] was 112 % of control.
With `O=S(=O)(O)CCC(O)S(=O)(=O)O` (stereo not drawn) the T/C [7] was 102 % of control, the T/C [8] was 108 % of control and the T/C [9] was 94 % of control.
`CC(=O)Nc1cc(C)cc(C(=O)O)c1C` was tested, and the T/C [1] was 97 % of control, the T/C [2] was 100 % of control and the T/C [3] was 98 % of control. For the same compound, the T/C (dose: 400.0 mg/kg/injection, schedule: Q01DX009 (ip), vehicle: saline with Tween-80) was 98 % of control.
In the case of `O=C1C(=O)N(c2cccc(Cl)c2)C(=O)N1Cc1ccccc1`, the T/C [10] is reported as 98 % of control, the T/C [11] is reported as 104 % of control and the T/C [12] is reported as 104 % of control.
`O=C(CNNC(=O)OCc1ccccc1)OCc1ccccc1` was tested, and the T/C (dose: 12.5 mg/kg/injection, schedule: Q01DX009 (ip), vehicle: other) was 95 % of control, the T/C [13] was 99 % of control and the T/C [14] was 93 % of control. The T/C [15] was 96 % of control.
For `Clc1cccnc1Cl`, the T/C [16] was 100 % of control and 110 % of control, the T/C [17] was 103 % of control and 105 % of control and the T/C (dose: 200.0 mg/kg/injection, schedule: Q01DX009 (ip), vehicle: saline) was 99 % of control and 106 % of control. The T/C (dose: 400.0 mg/kg/injection, schedule: Q01DX009 (ip), vehicle: saline) was 97 % of control.
With `N#CC1C(=O)NC(=O)C(C#N)C1c1ccc(Cl)c(Cl)c1` (stereo not drawn) the T/C [10] was 99 % of control, the T/C [11] was 100 % of control and the T/C [12] was 102 % of control.
`COC(=O)c1nc(=S)[nH]c(C(=O)OC)c1C(=O)c1ccc(C)cc1` was tested, and the T/C [4] was 106 % of control, the T/C [5] was 100 % of control and the T/C [6] was 100 % of control.
In the case of `COc1ccc(/C=N\Nc2cc(C)nc3ccc(C4CCCCC4)cc23)c2ccccc12`, the T/C [4] is reported as 99 % of control, the T/C [5] is reported as 104 % of control and the T/C [6] is reported as 93 % of control.
For `COc1ccc(OC)c(C2N(C)CCCN2C)c1`, the T/C (dose: 6.25 mg/kg/injection, schedule: Q01DX009 (ip), vehicle: saline sonified) was 95 % of control, the T/C (dose: 12.5 mg/kg/injection, schedule: Q01DX009 (ip), vehicle: saline sonified) was 90 % of control and the T/C (dose: 25.0 mg/kg/injection, schedule: Q01DX009 (ip), vehicle: saline sonified) was 100 % of control.
`COc1cc2c(O)c(c1)CCCC1=CC(=O)C=C(CCC2)C1=O` was tested, and the T/C (dose: 100.0 mg/kg/injection, schedule: Q01DX001 (ip), vehicle: saline with Tween-80) was 99 % of control, the T/C (dose: 200.0 mg/kg/injection, schedule: Q01DX001 (ip), vehicle: saline with Tween-80) was 101 % of control and the T/C (dose: 400.0 mg/kg/injection, schedule: Q01DX001 (ip), vehicle: saline with Tween-80) was 94 % of control.
`S=C(SSC(=S)N1CCOCC1)N1CCOCC1` was tested, and the T/C (dose: 15.0 mg/kg/injection, schedule: Q01DX005 (ip), vehicle: saline with Tween-80) was 97 % of control, the T/C [18] was 102 % of control and the T/C [4] was 102 % of control and 107 % of control. The T/C [5] was 104 % of control.
`CN1C2CCC1C(O)C(c1ccc(Cl)cc1)C2` (stereo not drawn) was tested, and the T/C (dose: 25.0 mg/kg/injection, schedule: Q01DX005 (ip), vehicle: Klucel (hydroxypropylcellulose) (HPC)) was 100 % of control, the T/C (dose: 50.0 mg/kg/injection, schedule: Q01DX005 (ip), vehicle: Klucel (hydroxypropylcellulose) (HPC)) was 100 % of control and the T/C (dose: 100.0 mg/kg/injection, schedule: Q01DX005 (ip), vehicle: Klucel (hydroxypropylcellulose) (HPC)) was 91 % of control.
With `CN(C)C=O` the T/C (dose: 12.5 mg/kg/injection, schedule: Q01DX009 (ip), vehicle: saline) was 103 % of control and 111 % of control, the T/C (dose: 25.0 mg/kg/injection, schedule: Q01DX009 (ip), vehicle: saline) was 103 % of control and 107 % of control and the T/C [16] was 107 % of control (2×) and 111 % of control. The T/C [17] was 109 % of control and 115 % of control and 116 % of control, the T/C (dose: 800.0 mg/kg/injection, schedule: Q01DX009 (ip), vehicle: saline) was 120 % of control and the T/C (dose: 1600.0 mg/kg/injection, schedule: Q01DX009 (ip), vehicle: saline) was 118 % of control. For the same compound, the T/C (dose: 2.0 % in 0.5 ml injection vol, schedule: Q01DX009 (ip), vehicle: water) was 107 % of control and 119 % of control, the T/C (dose: 4.0 % in 0.5 ml injection vol, schedule: Q01DX009 (ip), vehicle: water) was 116 % of control and 119 % of control and the T/C (dose: 8.0 % in 0.5 ml injection vol, schedule: Q01DX009 (ip), vehicle: water) was 119 % of control.
In the case of `C=CCn1nc([O-])[n+]2ccccc12`, the T/C [19] is reported as 95 % of control, the T/C [20] is reported as 95 % of control and the T/C [21] is reported as 104 % of control.
For `COC1=C(OC)C(=O)C(C)(CC=C(C)C)CC1=O` (stereo not drawn), the T/C (dose: 13.0 mg/kg/injection, schedule: Q01DX009 (ip), vehicle: saline + alcohol) was 113 % of control, the T/C [22] was 113 % of control and the T/C [23] was 103 % of control.
With `CCOC(=O)/C=C/c1ccc(C(=O)OCC)[nH]1` the T/C (dose: 25.0 mg/kg/injection, schedule: Q01DX009 (ip), vehicle: Klucel (hydroxypropylcellulose) (HPC)) was 101 % of control, the T/C [10] was 100 % of control and the T/C [11] was 107 % of control. The T/C [12] was 97 % of control.
`O=S(=O)(O)CC(O)CNC(CO)(CO)CO` (stereo not drawn) was tested, and the T/C [7] was 104 % of control, the T/C [8] was 98 % of control and the T/C [9] was 104 % of control.
`COC1=C(OC)C(=O)C(CC=C(C)C)=C(C)C1=O` was tested, and the T/C (dose: 12.5 mg/kg/injection, schedule: Q01DX009 (ip), vehicle: saline + alcohol) was 118 % of control, the T/C [22] was 104 % of control and 110 % of control and the T/C [23] was 103 % of control and 105 % of control. The T/C (dose: 100.0 mg/kg/injection, schedule: Q01DX009 (ip), vehicle: saline + alcohol) was 151 % of control.
`COc1ccc(OC)c(C(O)P(=O)(c2ccccc2)c2ccccc2)c1` (stereo not drawn) was tested, and the T/C [10] was 98 % of control, the T/C [11] was 93 % of control and the T/C [12] was 93 % of control.
For `CCOC(=O)CCCCCCNC(=O)N1c2c(nc(N)[nH]c2=O)NCC1CNc1ccc(C(=O)NC(CCC(=O)O)C(=O)O)cc1` (stereo not drawn), the T/C (dose: 50.0 mg/kg/injection, schedule: Q01DX001 (ip), vehicle: sodium bicarbonate) was 106 % of control, the T/C (dose: 100.0 mg/kg/injection, schedule: Q01DX001 (ip), vehicle: sodium bicarbonate) was 100 % of control and the T/C (dose: 200.0 mg/kg/injection, schedule: Q01DX001 (ip), vehicle: sodium bicarbonate) was 100 % of control.
For `O=C(NC(Cc1ccc([N+](=O)[O-])cc1)C(=O)O)c1ccccc1` (stereo not drawn), the T/C [13] was 104 % of control, the T/C [14] was 110 % of control and the T/C [15] was 104 % of control.
`Cc1ccc(C(=O)/C(N)=C/c2ccccn2)cc1` was tested, and the T/C [19] was 107 % of control, the T/C [20] was 105 % of control and the T/C [21] was 101 % of control.
With `CC(O)C(NCNC(=O)C1=C(O)C2(O)C(=O)C3=C(O)c4c(O)cccc4C(C)(O)C3CC2C(N(C)C)C1=O)C(=O)O` (stereo not drawn) the T/C (dose: 25.0 mg/kg/injection, schedule: Q01DX005 (ip), vehicle: saline) was 107 % of control, the T/C (dose: 50.0 mg/kg/injection, schedule: Q01DX005 (ip), vehicle: saline) was 108 % of control and the T/C (dose: 100.0 mg/kg/injection, schedule: Q01DX005 (ip), vehicle: saline) was 111 % of control. The T/C (dose: 100.0 mg/kg/injection, schedule: Q04DX003 (ip), vehicle: saline with Tween-80) was 104 % of control, the T/C (dose: 200.0 mg/kg/injection, schedule: Q01DX005 (ip), vehicle: saline) was 100 % of control and the T/C (dose: 200.0 mg/kg/injection, schedule: Q04DX003 (ip), vehicle: saline with Tween-80) was 104 % of control. The T/C (dose: 400.0 mg/kg/injection, schedule: Q04DX003 (ip), vehicle: saline with Tween-80) was 104 % of control.
For `COC(=O)C(=O)c1c(C(=O)OC)nc2nnc(N)n2c1-c1ccc(F)cc1`, the T/C [18] was 93 % of control, the T/C [4] was 99 % of control and the T/C [5] was 88 % of control. For the same compound, the T/C [6] was 93 % of control.

Source: PubChem BioAssay AID330 (DTP/NCI, 2004)
